Results reported in US20220346381A1, “COMPOSITION FOR PREVENTING THE FORMATION OF SEEDS IN FRUIT” (ASOCIACION CLUB DE VARIEDADES VEGETALES PROTEGIDAS, priority 2019, published 2022).
Values joined by “and” are separate entries in the source; they are usually repeats but may differ in a detail not shown here. Identical values can stand only once. “Also recorded” adds a separate entry of the source.

Key:
[1] = tested on: Nadorcott variety (mandarin); test: Treatment of entire trees, number of seeds in the fruit; format: in vivo
grapes Vitis vinifera L. = test: Treatment of individual pollinated flowers, pollen tubes in the stigma by fluorescence microscopy; format: in vivo
Method: (§1) Flower: treatment on individual flowers and microscopic observation of fluorescence. In this case the presence or absence of pollen tubes (PT) in the stigma was assessed as was their percentage reduction compared to positive controls. […] C+=Positive control=flower pollinated but NOT treated with the active product; PT=Pollen tubes (fluorescent fibres); AP=Active product.

[2] = tested on: cucumber fruit Cucumis sativus L.; test: Treatment of individual flowers, observation of the fruit formed (seeds); format: in vivo; conditions: scale Fruit
Description: (§2) Fruit: treatment of individual flowers and subsequent observation of the fruit formed from the treated flower. […] C+=Positive control=flower pollinated but NOT treated with the active product; PT=Pollen tubes (fluorescent fibres); AP=Active product.

[3] = tested on: aubergines Solanum melongena L.; test: Treatment of individual flowers, fruit seeds and pollen tubes in the stigma; format: in vivo
Description: as §2

[4] = tested on: watermelons Citrullus lanatus (Thunb.) Matsum. & Nakai; test: Treatment of individual flowers, pollen tubes in the stigma; format: in vivo
Method: as §1, with “controls. Fruit: treatment of individual flowers and subsequent observation of the fruit formed from the treated flower.” for “controls.”

Mexican lime = test: Treatment of individual pollinated flowers, pollen tubes in the stigma; format: in vivo
Method: as §1

[5] = tested on: Murcott Citrus reticulata White; test: as above; format: in vivo
Method: as §1

Nadorcott (mandarin) [6] = test: as above; format: in vivo
Method: as §1

[7] = tested on: Nova. C. clementine x [C.paradisi x C.tangerina]; test: as above; format: in vivo
Method: as §1

[8] = tested on: clementine fina Citrus clementine hort. Ex Tanaka; test: as above; format: in vivo
Method: as §1

[9] = tested on: clemenules Citrus clementine hort. Ex Tanaka; test: as above; format: in vivo
Method: as §1

[10] = tested on: lemons Citrus limon L. Burm. f.; test: as above; format: in vivo
Method: as §1

Nadorcott (mandarin) [11] = test: Field treatment by tractor on entire rows of adult trees, seeds; format: in vivo; conditions: scale Field
Description: Field: treatments by tractor on entire rows of adult trees.

Sweet orange = test: Treatment of individual pollinated flowers, pollen tubes in the stigma; format: in vivo, orange tree
Method: as §1

Grapefruit = test: as above; format: in vivo, grapefruit tree
Method: as §1

[12] = tested on: flowers of the Nadorcott mandarin; test: Action over time, pre-pollination treatment of flowers, seeds in fruit; format: in vivo; conditions: flowers treated, then pollinated D0 to D9; positive control 4.67 seeds
Method: (§3) In order to study the action over time of the product, two experiments were carried out on the flowers of the Nadorcott mandarin, one pre-pollination and the other post-pollination. In the pre-pollination experiment 300 flowers were treated with the product of the invention (S8) and subsequently pollinated in batches. One batch was pollinated on the same day (D0) and another batch the following day (D1), and so on successively until D9.

[13] = tested on: flowers of the Nadorcott mandarin; test: Action over time, post-pollination treatment of flowers, seeds in fruit; format: in vivo
Method: as §3, with “D9. In the post-pollination experiment 360 flowers were first pollinated. In this case, after first having been pollinated a batch was treated with the product on the same day (D0), another batch the following day (D1) and so on successively until day 9 (D9).” for “D9.”

pollen grains = test: Germination of pollen grains on Petri dishes; format: cell-based; conditions: assessed after 72 hours
Method: The action of the product on the germination of pollen grains was studied. To that end, pollen grains were sown on Petri dishes in laboratory conditions to which growing medium increasing concentrations of the active product (S8) were added. After 72 hours they were assessed and the number of germinated pollen grains were counted on each Petri dish.
A non-toxic, neutral product (sample), KNO3 was used for comparing the results with those obtained from the active product (AP).

[14] = tested on: adult trees of the Nadorcott mandarin variety; test: Phyto-toxicity on sprayed adult trees (chlorosis, necrosis, defoliation); format: in vivo; conditions: recommended concentrations (below 4%); listed as active product
Method: Phyto-toxicity tests were performed on adult trees of the Nadorcott mandarin variety. The trees were sprayed with different concentrations of the active product (S8). The level of affection on chlorosis, necrosis and defoliation was assessed, on a scale of 1 to 6, with 1 being very low and 6 being very high.

[15] = tested on: common bumblebee (Bombus sp.); test: Effects on pollinators, laboratory mortality test; format: in vivo; conditions: for toxicity classification for bumblebees / pollinators: international scale: non-toxic = acute LD50 >100 μg/bee
[16] = tested on: stigma papilla cells of mandarin flower; test: Microscopy of stigma treated with sulphur only or gibberellic acid only; format: in vivo; conditions: for state of stigma papilla cells (semi-thin cut): mandarin stigma treated with a single component only; for pollen tubes in the stigma of pollinated mandarin flower (fluorescence microscope): treated with a single component only
Description: The active ingredient sulphur, preferably in the form of an octatomic molecule (S8), is responsible for preventing the formation of seeds through the alteration of papilla cells of the stigma, whilst the GA is responsible for re-establishing the stimuli needed for the formation of the fruit, thus preventing a possible reduction in yield. The need for GA will depend on each crop and its parthenocarpic capacity. […] This mechanism is substantially due to the effect of sulphur. […] The effect of the active ingredient (sulphur) and gibberellic acid (GA) on papilla cells can be compared separately in FIGS. 6 and 7 through semi-thin microscope cuts.

mandarin = conditions: literature [1,2]; cited from earlier work
[17] = purified powder; cited from earlier work

Compound: S1SSSSSSS1 [(S8), sulphur (S) as an octatomic molecule (S8)]
- red. of seeds ([1]; Nadorcott, scale Tree): ~85%
- reduction of the average number of seeds compared to the positive control (in words) ([1]; entire Nadorcott trees, six experimental products compared): only one to significantly reduce the average number of seeds
- mean number of seeds in the fruit ([1]; entire Nadorcott trees, about 120 fruits per treatment, positive control C+ 3.3, listed as T1): 0.4 and 0.4083
- red. of PT (grapes Vitis vinifera L.; Vid, scale Flower, vs positive control): =100% red. of PT (FIG. 9A and 9B)
- pollen tubes in treated stigma (fluorescence image) (grapes Vitis vinifera L.; grape, pollinated flower): without PT
- red. seeds [2]: =100% red. seeds (FIG. 10A and 10B)
- red. seeds ([3]; Aubergine, scale Fruit): =100% red. seeds (FIG. 11A and 11B)
- pollen tubes in treated stigma (fluorescence image) ([3]; aubergine): without PT
- red. of PT ([4]; Watermelon, scale printed Fruit): =100% red. of PT (FIG. 12A and 12B)
- pollen tubes in treated stigma (fluorescence image) ([4]; watermelon): without PT
- pollen tubes in treated pollinated flowers (fluorescence image) (Mexican lime): No visible PT
- red. of PT (Mexican lime; scale Flower): =100% red. of PT (FIG. 20)
- pollen tubes in treated stigma (fluorescence image) [5]: without PT
- red. of PT ([5]; scale Flower): =100% red. of PT (FIG. 15A and 15B)
- red. of PT (Nadorcott (mandarin) [6]; Nadorcott, scale Flower): =100% red. of PT
- efficiencies when applied directly on the flower (Nadorcott (mandarin) [6]; direct application on the flower): 95-100%
- pollen tubes in treated stigma (fluorescence image) ([7]; Nova): without PT
- red. of PT ([7]; Nova (tangelo), scale Flower): =100% red. of PT (FIG. 16A and 16B)
- red. of PT ([8]; Fina, scale Flower): =100% red. of PT (FIG. 14A and 14B)
- pollen tubes in treated stigma (fluorescence image) ([8]; clementine fina): without PT
- red. of PT ([9]; Clemenules, scale Flower): =100% red. of PT (FIG. 13A and 13B)
- pollen tubes in treated stigma (fluorescence image) ([9]; clemenules): without PT
- red. of PT ([10]; Lemon, scale Flower): =100% red. of PT (FIG. 17A and 17B)
- pollen tubes in treated stigma (fluorescence image) ([10]; lemon): without PT
- red. of seeds (Nadorcott (mandarin) [11]): =81% red. of seeds
- red. of PT (Sweet orange; Sweet orange, scale Flower): =100% red. of PT (FIG. 18)
- pollen tubes in treated pollinated flowers (fluorescence image) (Sweet orange; orange tree): No visible PT
- red. of PT (Grapefruit; Grapefruit, scale Flower): =100% red. of PT (FIG. 19)
- pollen tubes in treated pollinated flowers (fluorescence image) (Grapefruit; grapefruit tree): No visible PT
- seeds in fruit after pre-pollination treatment [12]: did not present a single seed
- seeds prevented, post-pollination treatment ([13]; treated D0 to D3 after pollination, positive control 4.7 seeds): 100%
- seeds prevented, post-pollination treatment ([13]; treated D4-D9 after pollination): approximately 50%
- concentration at which inhibition of pollen grain germination is total (pollen grains): 2000 mg/L
- phyto-toxicity (chlorosis, necrosis, defoliation) [14]: does not produce necrosis, chlorosis or defoliation; also recorded: not phyto-toxic
- mortality rate ([15]; bumblebees, at 48 h): 50%
- toxicity classification for bumblebees / pollinators ([15]; listed as active ingredient): non-toxic
- toxicity classification for bumblebees / pollinators ([15]; listed as active product): non-toxic for pollinator insects
- state of stigma papilla cell (TEM) ([16]; TEM, crop not stated): lost turgidity and part of its components and appears collapsed
- state of stigma papilla cells (semi-thin cut) [16]: damaged
- state of stigma papilla cells (semi-thin cut) ([16]; listed as active ingredient (sulphur)): damaged stigma, without turgidity
- pollen tubes in the stigma of pollinated mandarin flower (fluorescence microscope) ([16]; listed as active ingredient (S8)): without pollen tubes; also recorded: no pollen tubes in the stigmatic area

Compound: OC[C@H]1O[C@@](CO)(O[C@H]2O[C@H](CO)[C@@H](O)[C@H](O)[C@H]2O)[C@@H](O)[C@@H]1O [Treatment T6, sucrose, reference compound]
- mean number of seeds in the fruit ([1]; entire Nadorcott trees, about 120 fruits per treatment, positive control C+ 3.3): 3.183

Compound: C=C1C[C@]23C[C@@]1(O)CC[C@H]2[C@@]12C=C[C@H](O)[C@@](C)(C(=O)O1)[C@H]2[C@@H]3C(=O)O [GA, gibberellic acid, reference compound]
- state of stigma papilla cells (semi-thin cut) [16]: intact, functional and turgid
- state of stigma papilla cells (semi-thin cut) ([16]; listed as gibberellic acid): good, functional and turgid
- pollen tubes in the stigma of pollinated mandarin flower (fluorescence microscope) [16]: developed pollen tubes can be clearly observed
- pollen tubes in the stigma of pollinated mandarin flower (fluorescence microscope) ([16]; listed as gibberellic acid): presence of pollen tubes inside the stigma can be clearly seen
- effectiveness for reducing the number of seeds in real field conditions (in words) (mandarin): not effective for reducing the number of seeds
- solubility in ethanol [17]: soluble in ethanol
- solubility in water [17]: somewhat soluble in water

Compound: O=[N+]([O-])[O-].[K+] [Treatment T3, potassium nitrate, reference compound]
- mean number of seeds in the fruit ([1]; in vivo): 3.333
